Laboratory results taken from PMC8878748, “Broad-Spectrum Antiviral Activity of the Amphibian Antimicrobial Peptide Temporin L and Its Analogs” (International Journal of Molecular Sciences, 2022).
Where a SMILES comes first, the peptide text is derived from it. [ ]: non-standard residue; d: D form. The star is where a group is joined. X1 = CC(C)CCC[C@@H](C)[C@H]1CC[C@H]2[C@@H]3CC=C4C[C@@H](OC(=O)CCOCCOCCOCCOCCNC(=O)C*)CC[C@]4(C)[C@H]3CC[C@]12C; Pentadecanoyl = CCCCCCCCCCCCCCC(=O)*; Palmitoyl = CCCCCCCCCCCCCCCC(=O)*; Hyp = O=C(O)[C@@H]1C[C@@H](O)CN1; Tridecanoyl = CCCCCCCCCCCCC(=O)*; dNle = CCCC[C@@H](N)C(=O)O; Nle = CCCC[C@H](N)C(=O)O

Columns and labels:
[1] = MTT cytotoxicity assay on Vero cells; format: cell-based; settings: MTT; for CC50: calculated after 2 h of peptide treatment; for viability: 2 h, concentrations below 25 μM, read-out: viable cells
MeV = settings: 2 h
[2] = test system: influenza virus (subtype H1N1); settings: influenza virus (subtype, 2 h)
[3] = Table 2; cited from earlier work
HPIV-3 = settings: 2 h

| SMILES | CC50 [1] [µM] | IC50 (MeV) [µM] | IC90 (MeV) [µM] | IC50 [2] [µM] | IC90 [2] [µM] | %Helix in DPC [3] [%] | IC50 (HPIV-3) [µM] | IC90 (HPIV-3) [µM] | viability [1] [%] |
| --- | --- | --- | --- | --- | --- | --- | --- | --- | --- |
| CC[C@H](C)[C@H](NC(=O)[C@H](CCCNC(=N)N)NC(=O)[C@@H]1CCCN1C(=O)[C@@H](CC(C)C)NC(=O)[C@H](Cc1ccccc1)NC(=O)[C@H](CCCCN)NC(=O)[C@H](CO)NC(=O)[C@H](Cc1ccccc1)NC(=O)[C@H](Cc1c[nH]c2ccccc12)NC(=O)[C@@H]1CCCN1C(=O)[C@@H](NC(=O)[C@@H](N)Cc1ccccc1)C(C)C)C(=O)N[C@@H](CC(C)C)C(N)=O [TL2, H-Phe-Val-Pro-Trp-Phe-Ser-Lys-Phe-DLeu-Pro-Arg-Ile-Leu-NH2] (H-FVPWFSKF[dL]PRIL-NH2) | 56.5 | > 50 | > 50 | 12 | 21.3 | 15 | – | – | – |
| CC[C@H](C)[C@H](NC(=O)[C@H](CCCNC(=N)N)NC(=O)[C@H]1CCCN1C(=O)[C@@H](CC(C)C)NC(=O)[C@H](Cc1ccccc1)NC(=O)[C@H](CCCCN)NC(=O)[C@H](CO)NC(=O)[C@H](Cc1ccccc1)NC(=O)[C@H](Cc1c[nH]c2ccccc12)NC(=O)[C@@H]1CCCN1C(=O)[C@@H](NC(=O)[C@@H](N)Cc1ccccc1)C(C)C)C(=O)N[C@@H](CC(C)C)C(N)=O [TL3, H-Phe-Val-Pro-Trp-Phe-Ser-Lys-Phe-DLeu-DPro-Arg-Ile-Leu-NH2] (H-FVPWFSKF[dL][dP]RIL-NH2) | > 100 | > 50 | > 50 | > 50 | > 50 | 8 | – | – | – |
| CC[C@H](C)[C@H](NC(=O)[C@H](CCCNC(=N)N)NC(=O)[C@@H]1C[C@@H](O)CN1C(=O)[C@@H](CC(C)C)NC(=O)[C@H](Cc1ccccc1)NC(=O)[C@H](CCCCN)NC(=O)[C@H](CO)NC(=O)[C@H](Cc1ccccc1)NC(=O)[C@H](Cc1c[nH]c2ccccc12)NC(=O)[C@@H]1CCCN1C(=O)[C@@H](NC(=O)[C@@H](N)Cc1ccccc1)C(C)C)C(=O)N[C@@H](CC(C)C)C(N)=O [TL4, H-Phe-Val-Pro-Trp-Phe-Ser-Lys-Phe-DLeu-Hyp-Arg-Ile-Leu-NH2] (H-FVPWFSKF[dL][Hyp]RIL-NH2) | 60.2 | > 50 | > 50 | 16.3 | 31.7 | 18 | > 50 | > 50 | – |
| CCCC[C@H](NC(=O)[C@@H](CC(C)C)NC(=O)[C@H](Cc1ccccc1)NC(=O)[C@H](CCCCN)NC(=O)[C@H](CO)NC(=O)[C@H](Cc1ccccc1)NC(=O)[C@H](Cc1c[nH]c2ccccc12)NC(=O)[C@@H]1CCCN1C(=O)[C@@H](NC(=O)[C@@H](N)Cc1ccccc1)C(C)C)C(=O)N[C@@H](CCCNC(=N)N)C(=O)N[C@H](C(=O)N[C@@H](CC(C)C)C(=O)N[C@@H](CSCC(=O)NCCOCCOCCOCCOCCC(=O)O[C@H]1CC[C@@]2(C)C(=CC[C@H]3[C@@H]4CC[C@H]([C@H](C)CCCC(C)C)[C@@]4(C)CC[C@@H]32)C1)C(N)=O)[C@@H](C)CC [TL6.1, H-Phe-Val-Pro-Trp-Phe-Ser-Lys-Phe-DLeu-Nle-Arg-Ile-Leu-Cys-[PEG4-Cholesterol]-NH2] (H-FVPWFSKF[dL][Nle]RILC(X1)-NH2) | > 100 | 39.1 | > 50 | 5.55 | 10 | – | – | – | – |
| CCCCCCCCCCCCC(=O)N[C@@H](Cc1ccccc1)C(=O)N[C@H](C(=O)N1CCC[C@H]1C(=O)N[C@@H](Cc1c[nH]c2ccccc12)C(=O)N[C@@H](Cc1ccccc1)C(=O)N[C@@H](CO)C(=O)N[C@@H](CCCCN)C(=O)N[C@@H](Cc1ccccc1)C(=O)N[C@H](CC(C)C)C(=O)N[C@@H](CCCC)C(=O)N[C@@H](CCCNC(=N)N)C(=O)N[C@H](C(=O)N[C@@H](CC(C)C)C(N)=O)[C@@H](C)CC)C(C)C [TL6.6, H-Tridecanoic acid-Phe-Val-Pro-Trp-Phe-Ser-Lys-Phe-DLeu-Nle-Arg-Ile-Leu-NH2] (Tridecanoyl-FVPWFSKF[dL][Nle]RIL-NH2) | > 100 | 33.4 | > 50 | 3.39 | 6.66 | – | – | – | – |
| CCCCCCCCCCCCCCC(=O)N[C@@H](Cc1ccccc1)C(=O)N[C@H](C(=O)N1CCC[C@H]1C(=O)N[C@@H](Cc1c[nH]c2ccccc12)C(=O)N[C@@H](Cc1ccccc1)C(=O)N[C@@H](CO)C(=O)N[C@@H](CCCCN)C(=O)N[C@@H](Cc1ccccc1)C(=O)N[C@H](CC(C)C)C(=O)N[C@@H](CCCC)C(=O)N[C@@H](CCCNC(=N)N)C(=O)N[C@H](C(=O)N[C@@H](CC(C)C)C(N)=O)[C@@H](C)CC)C(C)C [TL6.7, H-Pentadecanoic acid-Phe-Val-Pro-Trp-Phe-Ser-Lys-Phe-DLeu-Nle-Arg-Ile-Leu-NH2] (Pentadecanoyl-FVPWFSKF[dL][Nle]RIL-NH2) | > 100 | 37.8 | > 50 | 3.48 | 8.1 | – | – | – | – |
| CCCCCCCCCCCCCCCC(=O)N[C@@H](Cc1ccccc1)C(=O)N[C@H](C(=O)N1CCC[C@H]1C(=O)N[C@@H](Cc1c[nH]c2ccccc12)C(=O)N[C@@H](Cc1ccccc1)C(=O)N[C@@H](CO)C(=O)N[C@@H](CCCCN)C(=O)N[C@@H](Cc1ccccc1)C(=O)N[C@H](CC(C)C)C(=O)N[C@@H](CCCC)C(=O)N[C@@H](CCCNC(=N)N)C(=O)N[C@H](C(=O)N[C@@H](CC(C)C)C(N)=O)[C@@H](C)CC)C(C)C [TL6.8, H-Palmitic acid-Phe-Val-Pro-Trp-Phe-Ser-Lys-Phe-DLeu-Nle-Arg-Ile-Leu-NH2] (Palmitoyl-FVPWFSKF[dL][Nle]RIL-NH2) | > 100 | 39.4 | > 50 | 4.77 | 7.11 | – | – | – | – |
| CCCC[C@@H](NC(=O)[C@@H](CC(C)C)NC(=O)[C@H](Cc1ccccc1)NC(=O)[C@H](CCCCN)NC(=O)[C@H](CO)NC(=O)[C@H](Cc1ccccc1)NC(=O)[C@H](Cc1c[nH]c2ccccc12)NC(=O)[C@@H]1CCCN1C(=O)[C@@H](NC(=O)[C@@H](N)Cc1ccccc1)C(C)C)C(=O)N[C@@H](CCCNC(=N)N)C(=O)N[C@H](C(=O)N[C@@H](CC(C)C)C(N)=O)[C@@H](C)CC [TL7, H-Phe-Val-Pro-Trp-Phe-Ser-Lys-Phe-DLeu-DNle-Arg-Ile-Leu-NH2] (H-FVPWFSKF[dL][dNle]RIL-NH2) | 32.2 | > 50 | > 50 | 4.45 | 13.5 | 30 | > 50 | > 50 | – |
| CC[C@H](C)[C@H](NC(=O)[C@H](CCCNC(=N)N)NC(=O)[C@H](CCCCN)NC(=O)[C@@H](CC(C)C)NC(=O)[C@H](Cc1ccccc1)NC(=O)[C@H](CCCCN)NC(=O)[C@H](CO)NC(=O)[C@H](Cc1ccccc1)NC(=O)[C@H](Cc1c[nH]c2ccccc12)NC(=O)[C@@H]1CCCN1C(=O)[C@@H](NC(=O)[C@@H](N)Cc1ccccc1)C(C)C)C(=O)N[C@@H](CC(C)C)C(N)=O [TL8, H-Phe-Val-Pro-Trp-Phe-Ser-Lys-Phe-DLeu-Lys-Arg-Ile-Leu-NH2] (H-FVPWFSKF[dL]KRIL-NH2) | 22.3 | 37.1 | > 50 | 3.4 | 9.78 | 61 | – | – | – |
| CC[C@H](C)[C@H](NC(=O)[C@H](CCCNC(=N)N)NC(=O)[C@@H](CCCCN)NC(=O)[C@@H](CC(C)C)NC(=O)[C@H](Cc1ccccc1)NC(=O)[C@H](CCCCN)NC(=O)[C@H](CO)NC(=O)[C@H](Cc1ccccc1)NC(=O)[C@H](Cc1c[nH]c2ccccc12)NC(=O)[C@@H]1CCCN1C(=O)[C@@H](NC(=O)[C@@H](N)Cc1ccccc1)C(C)C)C(=O)N[C@@H](CC(C)C)C(N)=O [TL9, H-Phe-Val-Pro-Trp-Phe-Ser-Lys-Phe-DLeu-DLys-Arg-Ile-Leu-NH2] (H-FVPWFSKF[dL][dK]RIL-NH2) | 45.9 | 45 | > 50 | 3.44 | 11.2 | 30 | – | – | > 65 |
| CC[C@H](C)[C@H](NC(=O)[C@H](CCCNC(=N)N)NC(=O)[C@H](Cc1c[nH]c2ccccc12)NC(=O)[C@@H](CC(C)C)NC(=O)[C@H](Cc1ccccc1)NC(=O)[C@H](CCCCN)NC(=O)[C@H](CO)NC(=O)[C@H](Cc1ccccc1)NC(=O)[C@H](Cc1c[nH]c2ccccc12)NC(=O)[C@@H]1CCCN1C(=O)[C@@H](NC(=O)[C@@H](N)Cc1ccccc1)C(C)C)C(=O)N[C@@H](CC(C)C)C(N)=O [TL10, H-Phe-Val-Pro-Trp-Phe-Ser-Lys-Phe-DLeu-Trp-Arg-Ile-Leu-NH2] (H-FVPWFSKF[dL]WRIL-NH2) | 35.5 | 42.8 | > 50 | 3.79 | 12.1 | 50 | – | – | > 65 |
| CC[C@H](C)[C@H](NC(=O)[C@H](CCCNC(=N)N)NC(=O)[C@@H](Cc1c[nH]c2ccccc12)NC(=O)[C@@H](CC(C)C)NC(=O)[C@H](Cc1ccccc1)NC(=O)[C@H](CCCCN)NC(=O)[C@H](CO)NC(=O)[C@H](Cc1ccccc1)NC(=O)[C@H](Cc1c[nH]c2ccccc12)NC(=O)[C@@H]1CCCN1C(=O)[C@@H](NC(=O)[C@@H](N)Cc1ccccc1)C(C)C)C(=O)N[C@@H](CC(C)C)C(N)=O [TL11, H-Phe-Val-Pro-Trp-Phe-Ser-Lys-Phe-DLeu-DTrp-Arg-Ile-Leu-NH2] (H-FVPWFSKF[dL][dW]RIL-NH2) | 24.1 | 43.2 | > 50 | 3.05 | 9.77 | 40 | – | – | – |
